Some test systems named below: HL-60(TB) leukemia; SNB-19 CNS; NCI-H522 lung; CCRF-CEM leukemia; K-562 leukemia; MALME-3M melanoma; UO-31 renal; MCF7 breast; 786-0 renal; NCI/ADR-RES ovarian.
Common to all, as to test: DTP human tumour cell line panel, 48 h

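Growth conditions: 96-well plates. Treatment: test compound, 48 hours, 5 concentrations. Analysis: linear interpolation between bracketing concentrations; unreached endpoints set to highest concentration. GI50: concentration for 50% inhibition of growth. TGI denotes the concentration required for complete inhibition of growth.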

As usually defined, the GI50 is the concentration at which growth is held to half of that of the control. As a reminder, the TGI is the concentration giving total growth inhibition. On to `Clc1nc(Cl)c2ncn(-c3ccccc3)c2n1`, for which the GI50 with HL-60(TB) leukemia was 1.96 µM; in the test with SNB-19 CNS, 10.7 µM; in the test on NCI-H522 lung, 1.9 µM; in the test with CCRF-CEM leukemia it was 2.7 µM; with K-562 leukemia, 2.61 µM; with MALME-3M melanoma, 2.01 µM. In addition, the GI50 is 1.63 µM in the test on UO-31 renal, 4.09 µM with MCF7 breast, 5.51 µM with 786-0 renal and 1.85 µM in the test with NCI/ADR-RES ovarian. For the same compound, the TGI in the test with HL-60(TB) leukemia was 4.21 µM; with SNB-19 CNS, 23.9 µM; with NCI-H522 lung, 5.09 µM; in the test with CCRF-CEM leukemia it was 6.55 µM; with K-562 leukemia, 7.05 µM; with MALME-3M melanoma it was 7.12 µM. The TGI with UO-31 renal stood at 3.13 µM; in the test on MCF7 breast, 24.3 µM; in the test with 786-0 renal, 18.3 µM; in the test with NCI/ADR-RES ovarian, 3.55 µM.
Regarding `Cn1cc(-c2csc(-c3ccccc3)n2)c2cccnc21`, the GI50 in the test with HL-60(TB) leukemia was 9.4 µM; in the test on SNB-19 CNS it was 15.9 µM; with NCI-H522 lung, 14.1 µM; in the test with CCRF-CEM leukemia, 22.8 µM; in the test with K-562 leukemia, 13.9 µM; with MALME-3M melanoma it was 16.4 µM. For the same compound, the GI50 in the test with UO-31 renal is 11 µM; in the test with MCF7 breast, 12.6 µM; in the test with 786-0 renal it was 14.4 µM; with NCI/ADR-RES ovarian it was 19.3 µM. In addition, the concentration for total growth inhibition (TGI) with HL-60(TB) leukemia is 34 µM; with SNB-19 CNS, 47.8 µM; with NCI-H522 lung it was 33.3 µM; in the test with CCRF-CEM leukemia, more than 100 µM; in the test with K-562 leukemia, 48.9 µM; with MALME-3M melanoma it was 42.6 µM. Further, the total growth inhibition concentration (TGI) in the test on UO-31 renal amounted to 28.3 µM; in the test on MCF7 breast it was 33.8 µM; with 786-0 renal, 28.2 µM; with NCI/ADR-RES ovarian, 49.6 µM.
With `Nc1nc2ccc(CNc3ccc(C(=O)NC(CC(=O)O)C(=O)O)cc3)cc2c(=O)[nH]1` (stereo not given), the GI50 with HL-60(TB) leukemia was 1.13 µM; with SNB-19 CNS it was more than 82.5 µM; in the test with NCI-H522 lung, 14.4 µM; in the test with CCRF-CEM leukemia, 4.86 µM; in the test with K-562 leukemia, 0.437 µM; in the test with MALME-3M melanoma, more than 33.3 µM. The GI50 with UO-31 renal was 9.74 µM; in the test on MCF7 breast, 1.2 µM; in the test on 786-0 renal, 2.18 µM; in the test on NCI/ADR-RES ovarian it was 2.71 µM. Besides, the TGI with HL-60(TB) leukemia, in the test with SNB-19 CNS, in the test on NCI-H522 lung, with CCRF-CEM leukemia, in the test with K-562 leukemia and in the test with MALME-3M melanoma was more than 100 µM in each case. In addition, the concentration for total growth inhibition (TGI) in the test with UO-31 renal, with MCF7 breast, in the test with 786-0 renal and in the test with NCI/ADR-RES ovarian was more than 100 µM throughout.
For `CCN1C(=O)/C(=c2\sc3n(c2=O)C2C(NN=3)N(CC)C(=O)N2CC)c2ccccc21` (stereo not given), the 50% growth inhibitory concentration (GI50) in the test with HL-60(TB) leukemia is 0.303 µM; with SNB-19 CNS it was 0.75 µM; in the test with NCI-H522 lung it was 0.384 µM; with CCRF-CEM leukemia, 0.433 µM; in the test on K-562 leukemia it was 0.362 µM; in the test on MALME-3M melanoma it was 0.596 µM. Moreover, the GI50 with UO-31 renal was 0.846 µM; with MCF7 breast, 0.357 µM; in the test with 786-0 renal it was 0.663 µM; in the test on NCI/ADR-RES ovarian it was 0.411 µM. Also, the concentration for total growth inhibition (TGI) with HL-60(TB) leukemia was 1.01 µM; in the test on SNB-19 CNS, 63 µM; in the test on NCI-H522 lung it was 6.99 µM; with CCRF-CEM leukemia, more than 100 µM; with K-562 leukemia, more than 100 µM; in the test with MALME-3M melanoma it was more than 100 µM. The TGI in the test with UO-31 renal was more than 100 µM; in the test on MCF7 breast it was more than 100 µM; in the test on 786-0 renal, 16.9 µM; in the test with NCI/ADR-RES ovarian, 13.8 µM.
Take `COc1cccc2nc(Nc3cccc(NC(=O)c4ccc(N5CCN(C)CC5)c(C(F)(F)F)c4)c3)ccc12`: the GI50 in the test with HL-60(TB) leukemia was 1.07 µM; in the test on SNB-19 CNS, 1.11 µM; in the test with NCI-H522 lung, 1.04 µM; in the test on CCRF-CEM leukemia, 1.4 µM; with K-562 leukemia, 1.1 µM; with MALME-3M melanoma it was 0.816 µM. Also, the GI50 was 0.734 µM with UO-31 renal, 0.851 µM with MCF7 breast, 0.923 µM in the test on 786-0 renal and 1.5 µM with NCI/ADR-RES ovarian. Moreover, the TGI in the test with HL-60(TB) leukemia amounted to 2.35 µM; in the test with SNB-19 CNS, 2.29 µM; with NCI-H522 lung, 2 µM; in the test with CCRF-CEM leukemia it was 50 µM; in the test with K-562 leukemia it was 3.68 µM; with MALME-3M melanoma, 1.62 µM. Moreover, the concentration for total growth inhibition (TGI) with UO-31 renal is 1.49 µM; with MCF7 breast it was 1.9 µM; with 786-0 renal, 1.78 µM; in the test on NCI/ADR-RES ovarian, 4.95 µM.
With `NC(=O)c1c[nH]c2ncnc(N)c12`, the GI50 in the test on HL-60(TB) leukemia is 32.3 µM; in the test on SNB-19 CNS it was more than 100 µM; with NCI-H522 lung, more than 100 µM; with CCRF-CEM leukemia it was 29.5 µM; in the test with K-562 leukemia, 93.9 µM; in the test with MALME-3M melanoma it was 21.3 µM. Besides, the GI50 was 22.4 µM with UO-31 renal, 45.4 µM with MCF7 breast, more than 100 µM with 786-0 renal and more than 100 µM in the test with NCI/ADR-RES ovarian. Besides, the TGI was more than 100 µM with HL-60(TB) leukemia; more than 100 µM in the test with SNB-19 CNS; more than 100 µM in the test on NCI-H522 lung; more than 100 µM in the test on CCRF-CEM leukemia; more than 100 µM in the test on K-562 leukemia; 71.1 µM in the test with MALME-3M melanoma. Also, the TGI with UO-31 renal was 80.9 µM; in the test on MCF7 breast it was more than 100 µM; in the test on 786-0 renal, more than 100 µM; in the test on NCI/ADR-RES ovarian, more than 100 µM.

These data come from PubChem BioAssay (NCI).
